Assay [1] relates to HIV replication in T-lymphocytes, virus coding for mutant enzyme K103N/Y181C. Put plainly: ELISA (p24) assay for activity in cell culture, mutant virus. In kind it is cell-based. As to conditions: Human immunodeficiency virus 1, T-lymphocyte, read-out: EC50 K103N/Y181C. How it is done: (§1) ELISA Assay for Assessment of Activity in Cell Culture
(§2) Compounds of the invention were tested for their ability to inhibit HIV replication in cell culture. Viruses coding for Wild type and mutant enzymes were used. T-lymphocytes were infected with the virus, infected cells were incubated in the presence of varying amounts of compounds of the invention, and an ELISA assay for the viral protein p24 was used to quantify viral replication. Table 9 lists the results as EC50 (nM).
For orientation: An ELISA detects its analyte on a solid surface through an enzyme-linked reagent.

Assay [2] deals with T1, HIV-1 RT double mutant K103N/Y181C (Human immunodeficiency virus type 1 group M subtype B, UniProt P04585, K690N/Y768C).
T1 construct: Heterodimeric RT was eluted using a descending gradient; made in house; host or cells: E. coli (inferred; the text describes only wild type and Y181C preparations)
In words: Reverse Transcriptase (RT) assay, double mutant enzyme. In kind it is biochemical. The source says: (§3) Among the enzymes for which Human Immunodeficiency Virus (HIV-1) encodes is a reverse transcriptase (1), so-named because it transcribes a DNA copy from an RNA template. This activity can be quantitatively measured in a cell-free enzyme assay, which has been previously described (2), and is based upon the observation that reverse transcriptase is able to use a synthetic template poly r(C) primed with oligo d(G) to transcribe a radio-labelled, acid-precipitable DNA strand utilising ^3H-dGTP as a substrate. The assay described below utilises the wild type (WT) enzyme, which is the predominant form of the enzyme observed with patients infected with HIV-1. Utilisation of mutant RT enzymes (for example, Y181C, prepared by site-directed mutagenesis in which the tyrosine residue at codon 181 has been replaced by a cysteine residue, or the mutants K103N, V106A and Y188C) and analogous assay conditions allows compounds to be evaluated for their effectiveness at inhibiting the mutant enzymes.
(§4) The HIV-1 RT expression clone, pKRT2, was obtained from Yale University (3). An overnight culture, grown in 2×YT medium (37° C., 225 rpm) (4), supplemented with 100 μg/mL ampicillin for positive selection was used to inoculate the 2×YT medium. The culture was incubated (37° C., 225 rpm) until it reached an OD600 of 0.6-0.9. At that time, the repressor inhibitor IPTG (isopropyl P-D-thiogalactopyranoside) was added to 0.5 mM, and the mixture was incubated for an additional 2 hours.
(§5) Purification of recombinant reverse transcriptase was performed using a combination of methods previously described (5). This procedure is summarised briefly as follows: E. Coli containing RT-1 wt or RT-1 (Y181 C) were suspended in 50 mM MES, pH 6.0 containing 10% glycerol, lysed in a French press, centrifuged, and the supernates discarded. Lysate pellets were extracted with buffer A (50 mM MES, pH 6.0, 100 mM KCl, 50 mM KPi, 10% glycerol, 0.02% hexyl-β-glucoside), and re-centrifuged; nucleic acid in supernates was precipitated with 0.1% polyethylenimine. […] Bound RT was eluted with a gradient of 0 to 1.0M
(§6) (NH4)2 SO4 in buffer B. Heparin-Sepharose fractions containing RT were concentrated (Amicon YM-30 membrane), combined with equal volumes of 2.0M (NH4)2SO4 in buffer B and injected onto a 21.5×150 mm TSK Phenyl-5PW HIC HPLC column (Phenomenex). Heterodimeric RT was eluted using a descending gradient of 1.0M to 0M (NH4)2SO4 in buffer B, concentrated, and stored at 4° C.
(§7) The 2.4× concentrated stock reaction mixture was aliquoted and stored at −20° C. The mixture is stable and can be thawed for use in each assay. This enzyme assay has been adapted to a 96 well microtiter plate system, and has been previously described (6). Tris buffer (50 mM, pH 7.8), vehicle (solvent diluted to match the compound dilution), or compounds in vehicle were dispensed into 96-well microtiter plates (10 μL/well; 3 wells/compound). The HIV-1 RT enzyme was thawed, diluted in 50 mM Tris pH 7.8 containing 0.05% Chaps to give 1.5 nM enzyme and 25 μL were dispensed per well. Ten μL of 0.5M EDTA were added to the first three wells of the microtiter plate. EDTA chelates the Mg^2+ present and prevents reverse transcription. This group served as background polymerisation, which was subtracted, from all other groups. Twenty-five μl of the 2.4× reaction mixture was added to all wells and the assay was allowed to incubate at room temperature for 30 minutes. The assay was terminated by precipitating the DNA in each well with 60 μL of sodium pyrophosphate (2% w/v) in 10% trichloroacetic acid (TCA) (10% w/v). The microtiter plate was incubated for 15 minutes at 4° C. and the precipitate was harvested onto #30 glass fibre paper (Schleicher & Schuell) using a Tomtech 96-well harvester. The filters were dried, placed in plastic bags with Betaplate scintillation cocktail (Pharmacia/LKB) and counted in the Betaplate counter (Pharmacia/LKB).
(§8) The calculation for percent inhibition is as follows: [formula] […]

The target of another assay is T2, HIV-1 RT wild type (WT) (Human immunodeficiency virus type 1 group M subtype B, UniProt P04585).
T2 construct: Heterodimeric RT was eluted using a descending gradient; made in house; host or cells: E. coli
Put plainly: Reverse Transcriptase (RT) assay, wild type enzyme. In kind it is biochemical.
Excerpt: as §3, §4, §5, §6, §7, §8

Assay [3] relates to HIV replication in T-lymphocytes, virus coding for wild type enzyme. Put plainly: ELISA (p24) assay for activity in cell culture, wild type virus. Conditions: Human immunodeficiency virus 1, T-lymphocyte, read-out: EC50 WT RT. The assay is classed as cell-based. How it is done: as §1, §2

Molecules are shown by their SMILES.

Drawing on patent publication US6716836B2, “Non-nucleoside reverse transcriptase inhibitors” (Boehringer Ingelheim (Canada) Ltd., priority 2001, dated 2004), this text covers EC50 and IC50 for 24 compounds.

What is called IC50 is the point on the concentration scale where inhibition reaches its midpoint. As to `CCN1c2ncc(CCOc3cccc4c3CCS(=O)(=O)N4CC(=O)OC)cc2C(=O)N(C)c2cccnc21` [Compound 616], the EC50 in assay [1] and in assay [3] was less than 0.1 µM in each case. Besides, the IC50 (in assay [2]; at HIV-1 RT wild type (WT)) was less than 0.1 µM each time.
Consider `CCN1c2ncc(CCOc3cccc4c3CCS(=O)(=O)N4CC(=O)NC(C)(C)C(=O)O)cc2C(=O)N(C)c2cccnc21` [Compound 637], for which the EC50 in assay [1] and in assay [3] was less than 0.1 µM in each case. In addition, the IC50 (in assay [2]; on HIV-1 RT wild type (WT)) was less than 0.1 µM in each case.
Consider `CCN1c2ncc(CCOc3cccc4c3CCN(CCCC(=O)O)S4(=O)=O)cc2C(=O)N(C)c2cccnc21` [Compound 713], for which the EC50 in assay [1] and in assay [3] was less than 0.1 µM in each case. Besides, the IC50 (in assay [2]; on HIV-1 RT wild type (WT)) was less than 0.1 µM in each case.
On to `CCN1c2ncc(CCOc3cccc4c3CS(=O)(=O)N4Cc3cc[n+]([O-])cc3)cc2C(=O)N(C)c2cccnc21` [Compound 130], for which the EC50 in assay [1] and in assay [3] was less than 0.1 µM in each case. Moreover, the IC50 (in assay [2]; on HIV-1 RT wild type (WT)) was less than 0.1 µM in each case.
In the case of `CCN1c2ncc(CCOc3cccc4c3CCS(=O)(=O)N4CCCC(=O)NNCC(F)(F)F)cc2C(=O)N(C)c2cccnc21` [Compound 640], the EC50 in assay [1] and in assay [3] was less than 0.1 µM throughout. Further, the IC50 (in assay [2]; at HIV-1 RT wild type (WT)) was less than 0.1 µM throughout.
Take `CCN1c2ncc(CCOc3cccc4c3CCS(=O)(=O)N4)cc2C(=O)N(C)c2cccnc21` [Compound 601]: the EC50 in assay [1] and in assay [3] was less than 0.1 µM each time. The IC50 (in assay [2]; at HIV-1 RT wild type (WT)) was less than 0.1 µM each time.
With `CCN1c2ncc(CCOc3cccc4c3CS(=O)(=O)N4Cc3cc[n+]([O-])cc3)cc2C(=O)Nc2c(C)ccnc21` [Compound 136], the EC50 in assay [1] and in assay [3] was less than 0.1 µM throughout. The IC50 (in assay [2]; on HIV-1 RT wild type (WT)) was less than 0.1 µM throughout.
Take `CCN1c2ncc(CCOc3cccc4c3C=CS(=O)(=O)N4C)cc2C(=O)Nc2c(C)ccnc21` [Compound 804]: the EC50 in assay [1] and in assay [3] was less than 0.1 µM in each case. Also, the IC50 (in assay [2]; on HIV-1 RT wild type (WT)) was less than 0.1 µM in each case.
For `CCN1c2ncc(CCOc3cccc4c3CS(=O)(=O)N4Cc3ccc[n+]([O-])c3)cc2C(=O)N(C)c2cccnc21` [Compound 132], the EC50 in assay [1] and in assay [3] was less than 0.1 µM throughout. In addition, the IC50 (in assay [2]; on HIV-1 RT wild type (WT)) was less than 0.1 µM each time.
For the compound `CCN1c2ncc(CCOc3cccc4c3C=CS(=O)(=O)N4C)cc2C(=O)N(C)c2cccnc21` [Compound 803], the EC50 in assay [1] and in assay [3] was less than 0.1 µM in each case. The IC50 (in assay [2]; on HIV-1 RT wild type (WT)) was less than 0.1 µM in each case.
Consider `CCN1c2ncc(CCOc3cccc4c3CS(=O)(=O)N4CC(=O)Nc3cc[n+]([O-])cc3)cc2C(=O)N(C)c2cccnc21` [Compound 141], for which the EC50 in assay [1] and in assay [3] was less than 0.1 µM in each case. Besides, the IC50 (in assay [2]; on HIV-1 RT wild type (WT)) was less than 0.1 µM throughout.
Take `CCN1c2ncc(CCOc3cccc4c3CCS(=O)(=O)N4Cc3ccncc3)cc2C(=O)N(C)c2cccnc21` [Compound 621]: the EC50 in assay [1] and in assay [3] was less than 0.1 µM each time. Further, the IC50 (in assay [2]; on HIV-1 RT wild type (WT)) was less than 0.1 µM throughout.
Consider `CCN1c2ncc(CCOc3cccc4c3CCS(=O)(=O)N4CC(=O)NC3(C(=O)O)CC3)cc2C(=O)N(C)c2cccnc21` [Compound 638], for which the EC50 in assay [1] and in assay [3] was less than 0.1 µM throughout. The IC50 (in assay [2]; at HIV-1 RT wild type (WT)) was less than 0.1 µM in each case.
In the case of `CCN1c2ncc(CCOc3cccc4c3C=CS(=O)(=O)N4CCCC(=O)O)cc2C(=O)N(C)c2cccnc21` [Compound 809], the EC50 in assay [1] and in assay [3] was less than 0.1 µM each time. The IC50 in assay [2] is 0.1 to 1 µM; on HIV-1 RT wild type (WT), less than 0.1 µM.
Consider `CCN1c2ncc(CCOc3cccc4c3CS(=O)(=O)N4CC(=O)Nc3cc[n+]([O-])cc3)cc2C(=O)Nc2c(C)cc(Cl)nc21` [Compound 147], for which the EC50 in assay [1] and in assay [3] was less than 0.1 µM in each case. In addition, the IC50 (in assay [2]; on HIV-1 RT wild type (WT)) was less than 0.1 µM each time.
Take `CCN1c2ncc(CCOc3cccc4c3CCS(=O)(=O)N4CCOC(N)=O)cc2C(=O)N(C)c2cccnc21` [Compound 639]: the EC50 in assay [1] and in assay [3] was less than 0.1 µM throughout. The IC50 (in assay [2]; on HIV-1 RT wild type (WT)) was less than 0.1 µM throughout.
In the case of `CCN1c2ncc(CCOc3cccc4c3CCS(=O)(=O)N4CC(=O)NC(C)(C)C(=O)NN)cc2C(=O)N(C)c2cccnc21` [Compound 641], the EC50 in assay [1] and in assay [3] was less than 0.1 µM each time. The IC50 (in assay [2]; on HIV-1 RT wild type (WT)) was less than 0.1 µM each time.
On to `CCN1c2ncc(CCOc3cccc4c3CNS4(=O)=O)cc2C(=O)N(C)c2cccnc21` [Compound 202], for which the EC50 in assay [1] and in assay [3] was less than 0.1 µM throughout. The IC50 (in assay [2]; on HIV-1 RT wild type (WT)) was less than 0.1 µM each time.
`CCN1c2ncc(CCOc3cccc4c3CS(=O)(=O)N4Cc3ccc[n+]([O-])c3)cc2C(=O)Nc2c(C)ccnc21` [Compound 137]: the EC50 in assay [1] and in assay [3] was less than 0.1 µM each time. Also, the IC50 (in assay [2]; on HIV-1 RT wild type (WT)) was less than 0.1 µM in each case.
With `CCN1c2ncc(CCOc3cccc4c3CS(=O)(=O)N4CC(C)C(=O)O)cc2C(=O)N(C)c2cccnc21` (stereo not drawn) [Compound 138], the EC50 in assay [1] and in assay [3] was less than 0.1 µM each time. Moreover, the IC50 (in assay [2]; on HIV-1 RT wild type (WT)) was less than 0.1 µM in each case.
In the case of `CCN1c2ncc(CCOc3cccc4c3CCS(=O)(=O)N4CCCC(=O)NN)cc2C(=O)N(C)c2cccnc21` [Compound 636], the EC50 in assay [1] and in assay [3] was less than 0.1 µM each time. Moreover, the IC50 (in assay [2]; on HIV-1 RT wild type (WT)) was less than 0.1 µM throughout.
Take `CCN1c2ncc(CCOc3cccc4c3CS(=O)(=O)N4CC(=O)O)cc2C(=O)N(C)c2cccnc21` [Compound 127]: the EC50 in assay [1] was 0.1 to 1 µM; in assay [3] it was less than 0.1 µM. The IC50 in assay [2] is 0.1 to 1 µM; at HIV-1 RT wild type (WT), less than 0.1 µM.
For the compound `CCN1c2ncc(CCOc3cccc4c3CCS(=O)(=O)N4Cc3cccnc3)cc2C(=O)N(C)c2cccnc21` [Compound 629], the EC50 in assay [1] and in assay [3] was less than 0.1 µM in each case. Further, the IC50 (in assay [2]; on HIV-1 RT wild type (WT)) was less than 0.1 µM throughout.
For the compound `CCN1c2ncc(CCOc3cccc4c3CCN(CCCC(=O)NN)S4(=O)=O)cc2C(=O)N(C)c2cccnc21` [Compound 714], the EC50 in assay [1] and in assay [3] was less than 0.1 µM each time. Besides, the IC50 (in assay [2]; at HIV-1 RT wild type (WT)) was less than 0.1 µM throughout.
